Source: paper PMC4032195 (ACS Chemical Biology, 2014)
One block for each compound: values may come before it.

What was measured:
BET bromodomains = settings: cited from earlier work
BRDT-1 = BRDT-1 (Homo sapiens, UniProt Q58F21); experiment: biochemical; assay type: binding; settings: IC50 (μM) BRDT-1, Alpha Screen, KAc-histone H4 peptide (K5/8/12/16Ac)
VEGFR-2 = settings: read-out: IC50 VEGFR-2; cited from earlier work
VEGFR-1 = settings: read-out: IC50 VEGFR-1; cited from earlier work
BRD4-1 = BRD4-1 (Homo sapiens, UniProt O60885); experiment: biochemical; assay type: binding; settings: IC50 (μM) BRD4-1, Alpha Screen, KAc-histone H4 peptide (K5/8/12/16Ac)

SMILES: O=c1cc(N2CCOCC2)oc2c(-c3ccccc3)cccc12 [LY294002]
inhibition of BET bromodomains (BET bromodomains): modest inhibitor of BET bromodomains

IC50 (BRDT-1): 7.6 µM
SMILES: COc1cc(Nc2nccc(Nc3ccc4c(C)n[nH]c4c3)n2)cc(OC)c1OC [GW612286X]

SMILES: Cc1ccc(Nc2nccc(N(C)c3ccc4c(C)n(C)nc4c3)n2)cc1S(N)(=O)=O [Pazopanib]
IC50 (VEGFR-1): 0.01 µM

IC50 (BRD4-1): > 20 µM
IC50 (BRDT-1): > 20 µM
SMILES: COc1cc(Nc2ncc(F)c(Nc3ccc4c(n3)N(COP(=O)(O)O)C(=O)C(C)(C)O4)n2)cc(OC)c1OC [Fostamatinib]
